Literature values as cited in patent US8252778B2, “Highly fluorinated oils and surfactants and methods of making and using same” (University of Utah Research Foundation, priority 2006, dated 2012).

Biological target: sstr2 (Homo sapiens, UniProt P30874)
Sequence (P30874 whole entry, species assumed): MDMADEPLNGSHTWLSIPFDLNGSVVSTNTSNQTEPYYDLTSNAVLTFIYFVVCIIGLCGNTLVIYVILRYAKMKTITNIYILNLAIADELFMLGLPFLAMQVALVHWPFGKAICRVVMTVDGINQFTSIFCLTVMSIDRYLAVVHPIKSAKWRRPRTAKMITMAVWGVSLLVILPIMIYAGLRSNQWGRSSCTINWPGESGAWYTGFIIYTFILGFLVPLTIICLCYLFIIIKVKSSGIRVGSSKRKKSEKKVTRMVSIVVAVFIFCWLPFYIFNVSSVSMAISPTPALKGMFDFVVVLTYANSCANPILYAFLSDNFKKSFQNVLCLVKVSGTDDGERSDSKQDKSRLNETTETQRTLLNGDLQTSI

C[C@@H](O)[C@@H]1NC(=O)[C@H](CCCCN)NC(=O)[C@@H](Cc2c[nH]c3ccccc23)NC(=O)[C@H](Cc2ccccc2)NC(=O)[C@@H](NC(=O)[C@H](N)Cc2ccccc2)CSSC[C@@H](C(=O)N[C@H](CO)[C@@H](C)O)NC1=O [octreotide, DPhe1-c[Cys2-Phe3-DTrp-4-Lys5-Thr6-Cys7]-Thr8-NH2]
affinity and specificity for sstr2: high affinity and specificity
